The record followed here is publication PMC6122390, “Synthesis of 1,4-imino-L-lyxitols modified at C-5 and their evaluation as inhibitors of GH38 α-mannosidases” (Beilstein Journal of Organic Chemistry, 2018).

Where two headings read alike, the source gives them in different places.

For orientation: IC50 means the point on the concentration scale where inhibition reaches its midpoint. By melting point is commonly meant the temperature, or range, at which the solid turns liquid.

The target of data set [1] is lysosomal α-mannosidase II (LManII) (Drosophila melanogaster, UniProt Q9VKV1). As to the kind of experiment: Inhibition of lysosomal α-mannosidase II (LManII), pNP-Man substrate. The data set is classed as biochemical. Conditions: n.i. = no inhibition, 2 mM pNP-Man, pH 5.2. The procedure:
(§1) The purification and characterization of recombinant Drosophila melanogaster Golgi α-mannosidase II [9] (GMIIb) and lysosomal α-mannosidase II (LManII) was carried out as already described. Activity of prepared mannosidases was measured using p-nitrophenyl-α-D-mannopyranoside (pNP-Man; Sigma-Aldrich) as a substrate at 2 mM concentration prepared from a 100 mM stock in dimethyl sulfoxide by dilution in 50 mM acetate buffer at optimal pH for the enzymes (Jack bean α-mannosidase (JBMan) at pH 5.0, Golgi α-mannosidase (GMIIb) at pH 6.0 and lysosomal α-mannosidase (LManII) at pH 5.2) and 0.5 μL of the enzyme (0.05 µg of protein for Jack bean α-mannosidase), in a total volume of 50 μL for 1–2 h at 37 °C. GMIIb was assayed in the presence of 0.5 mM CoCl2. Pyrrolidines 2–5 used in biochemical evaluation were lyophilized before use. The inhibitors 2–5 were pre-incubated with the enzyme in the buffer for 5 min at rt and the reaction was started by addition of the substrate. The reactions were terminated with two volumes (0.1 mL) of 0.5 M sodium carbonate and the production of p-nitrophenol was measured at 405 nm using a multimode reader Mithras LB943 (Berthold Technologies). The IC50 value was determined with 2 mM pNP-Man. All biochemical assays were performed in 96 well microplates in triplicate.

Data set [2] concerns the target Drosophila melanogaster Golgi α-mannosidase II (GMIIb) (Drosophila melanogaster, UniProt Q9VF33). The experiment in a line: Inhibition of Golgi α-mannosidase II (GMIIb), pNP-Man substrate. In kind it is biochemical. To be noted: for IC50: 2 mM pNP-Man; for fold decrease in inhibition activity against GMIIb in comparison with 1a: relative to 1a. How it is done: as §1

The target in data set [3] is T1, Jack bean α-mannosidase (JBMan) (Canavalia ensiformis, UniProt C0HJB3).
T1 construct: purchased
T1 sequence (C0HJB3 1-981): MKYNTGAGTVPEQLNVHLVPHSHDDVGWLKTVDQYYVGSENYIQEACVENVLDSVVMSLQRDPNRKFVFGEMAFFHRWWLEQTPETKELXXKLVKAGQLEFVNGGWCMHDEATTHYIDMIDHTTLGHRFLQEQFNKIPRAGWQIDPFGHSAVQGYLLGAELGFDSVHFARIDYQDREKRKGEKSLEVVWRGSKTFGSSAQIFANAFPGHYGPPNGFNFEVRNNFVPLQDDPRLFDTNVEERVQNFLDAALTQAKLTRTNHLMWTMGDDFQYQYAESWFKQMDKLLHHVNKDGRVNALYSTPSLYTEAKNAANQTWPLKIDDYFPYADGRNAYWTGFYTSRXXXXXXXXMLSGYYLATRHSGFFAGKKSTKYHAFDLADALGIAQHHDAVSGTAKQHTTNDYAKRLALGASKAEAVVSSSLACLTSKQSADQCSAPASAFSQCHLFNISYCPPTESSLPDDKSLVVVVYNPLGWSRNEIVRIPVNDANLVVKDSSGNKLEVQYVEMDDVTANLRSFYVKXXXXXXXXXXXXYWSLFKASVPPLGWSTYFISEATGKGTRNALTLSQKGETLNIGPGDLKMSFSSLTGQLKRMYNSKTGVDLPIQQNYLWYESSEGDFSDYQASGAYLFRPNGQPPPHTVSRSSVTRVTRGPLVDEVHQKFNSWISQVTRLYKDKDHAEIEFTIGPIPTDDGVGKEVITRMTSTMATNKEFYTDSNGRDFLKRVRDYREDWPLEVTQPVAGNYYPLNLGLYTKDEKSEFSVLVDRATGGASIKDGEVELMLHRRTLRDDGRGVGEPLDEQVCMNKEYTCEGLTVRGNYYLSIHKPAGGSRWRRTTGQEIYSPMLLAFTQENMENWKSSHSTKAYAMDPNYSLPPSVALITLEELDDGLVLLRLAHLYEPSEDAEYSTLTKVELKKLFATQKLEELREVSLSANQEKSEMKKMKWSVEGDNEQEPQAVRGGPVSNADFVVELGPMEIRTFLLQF
As to the kind of experiment: Inhibition of jack bean α-mannosidase (JBMan), pNP-Man substrate. In kind it is biochemical. To be noted: n.i. = no inhibition, 2 mM pNP-Man; for inhibition at 2000 µM: pH 5, 2 mM inhibitor, read-out: JBMan (%) inhibition in the presence of 2 mM inhibitor concentration; for JBMan (%) inhibition in the presence of 2 mM inhibitor concentration: pH 5.0. The procedure: as §1

Where [4] appears, read: pH 6.0, 0.5 mM CoCl2, 37 °C, read-out: GMIIb [IC50 (M)].

Chain of Drosophila melanogaster Golgi α-mannosidase II (GMIIb) (Q9VF33 entry or part of it): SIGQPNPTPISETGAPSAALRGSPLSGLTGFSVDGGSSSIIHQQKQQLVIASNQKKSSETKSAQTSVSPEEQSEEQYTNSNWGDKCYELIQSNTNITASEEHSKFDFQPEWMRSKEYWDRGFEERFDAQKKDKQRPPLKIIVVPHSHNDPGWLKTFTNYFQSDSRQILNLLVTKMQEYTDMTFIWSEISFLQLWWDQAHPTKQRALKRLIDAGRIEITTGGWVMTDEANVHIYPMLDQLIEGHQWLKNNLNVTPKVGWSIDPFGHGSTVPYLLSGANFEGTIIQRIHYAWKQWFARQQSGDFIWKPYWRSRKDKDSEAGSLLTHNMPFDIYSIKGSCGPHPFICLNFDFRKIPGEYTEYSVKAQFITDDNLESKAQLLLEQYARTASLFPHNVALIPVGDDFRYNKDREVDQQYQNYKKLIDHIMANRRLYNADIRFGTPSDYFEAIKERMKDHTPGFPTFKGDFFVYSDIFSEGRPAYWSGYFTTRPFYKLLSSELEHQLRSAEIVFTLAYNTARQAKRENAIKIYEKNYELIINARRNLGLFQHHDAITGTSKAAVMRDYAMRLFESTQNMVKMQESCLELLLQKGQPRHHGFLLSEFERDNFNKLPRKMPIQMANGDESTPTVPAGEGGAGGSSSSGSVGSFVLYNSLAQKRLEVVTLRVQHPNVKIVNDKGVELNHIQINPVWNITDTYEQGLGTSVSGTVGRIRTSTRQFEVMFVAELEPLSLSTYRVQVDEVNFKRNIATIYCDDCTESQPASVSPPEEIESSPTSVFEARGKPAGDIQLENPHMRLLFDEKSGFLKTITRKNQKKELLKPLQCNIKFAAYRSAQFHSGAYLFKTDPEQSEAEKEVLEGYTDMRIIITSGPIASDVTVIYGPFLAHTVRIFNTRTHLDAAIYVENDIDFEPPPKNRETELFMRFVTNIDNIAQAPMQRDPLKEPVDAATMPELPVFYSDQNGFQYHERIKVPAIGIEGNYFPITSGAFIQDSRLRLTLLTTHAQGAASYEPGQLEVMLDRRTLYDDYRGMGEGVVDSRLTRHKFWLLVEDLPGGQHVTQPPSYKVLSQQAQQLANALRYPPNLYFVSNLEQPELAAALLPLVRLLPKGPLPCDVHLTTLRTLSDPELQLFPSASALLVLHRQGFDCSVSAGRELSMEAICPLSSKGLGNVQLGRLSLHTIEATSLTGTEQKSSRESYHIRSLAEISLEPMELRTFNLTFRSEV
Chain of lysosomal α-mannosidase II (LManII) (Q9VKV1 entry or part of it): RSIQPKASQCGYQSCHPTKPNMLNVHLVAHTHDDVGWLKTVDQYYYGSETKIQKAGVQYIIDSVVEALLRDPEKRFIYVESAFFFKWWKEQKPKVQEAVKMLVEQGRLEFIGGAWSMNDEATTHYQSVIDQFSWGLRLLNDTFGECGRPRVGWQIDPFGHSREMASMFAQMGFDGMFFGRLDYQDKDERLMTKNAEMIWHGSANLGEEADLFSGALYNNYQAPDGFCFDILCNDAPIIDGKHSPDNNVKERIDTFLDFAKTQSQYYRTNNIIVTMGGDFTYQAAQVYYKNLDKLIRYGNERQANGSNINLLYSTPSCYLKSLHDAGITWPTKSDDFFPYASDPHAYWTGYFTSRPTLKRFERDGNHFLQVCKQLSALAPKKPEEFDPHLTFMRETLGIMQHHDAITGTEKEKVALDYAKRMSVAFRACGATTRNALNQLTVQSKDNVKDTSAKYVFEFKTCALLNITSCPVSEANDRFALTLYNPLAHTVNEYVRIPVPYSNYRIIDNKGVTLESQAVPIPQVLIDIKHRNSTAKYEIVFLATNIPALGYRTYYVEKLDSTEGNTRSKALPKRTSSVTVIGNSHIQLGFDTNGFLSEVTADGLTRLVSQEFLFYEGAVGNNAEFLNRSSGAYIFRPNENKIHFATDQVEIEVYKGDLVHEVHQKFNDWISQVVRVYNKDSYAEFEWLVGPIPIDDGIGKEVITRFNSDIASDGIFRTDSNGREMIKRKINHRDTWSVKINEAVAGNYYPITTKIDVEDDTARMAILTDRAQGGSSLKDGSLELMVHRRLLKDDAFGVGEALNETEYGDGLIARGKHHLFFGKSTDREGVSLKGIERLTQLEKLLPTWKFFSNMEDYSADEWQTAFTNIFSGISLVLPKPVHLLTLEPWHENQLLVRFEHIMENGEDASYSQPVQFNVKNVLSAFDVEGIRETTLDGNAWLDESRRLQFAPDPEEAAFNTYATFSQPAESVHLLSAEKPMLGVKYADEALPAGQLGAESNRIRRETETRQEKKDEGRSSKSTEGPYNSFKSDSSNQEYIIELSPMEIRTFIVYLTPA

`C[C@@H](O)[C@H]1[C@@H](O)[C@@H](O)CN1Cc1ccc(Br)cc1` [Compound 4b]: the “LmanII inhibition in the presence of 2 mM inhibitor concentration” value (“LmanII inhibition in the presence” below) in data set [1] was “n.i.^a”. Further, in data set [2] (setting [4]), the half-inhibitory concentration (IC50) came out at 0.0016 M. Also, the inhibition at 2000 µM in data set [3] was 4%.

Consider `C[C@H]1[C@@H](O)[C@@H](O)CN1Cc1ccc(I)cc1` [Compound 2c], for which, in data set [1], the “LmanII inhibition in the presence” value is “n.i.^a”. The IC50 in data set [2] (setting [4]) was 0.0003 M. Also, the “JBMan (%) inhibition in the presence of 2 mM inhibitor concentration” value (“JBMan (%) inhibition in the presence” below) in data set [3] is “n.i”.

For `C[C@H]1[C@@H](O)[C@@H](O)CN1Cc1ccc(Br)cc1` [Compound 2b], the “LmanII inhibition in the presence” value in data set [1] was “n.i.^a”. In addition, the half-maximal inhibitory concentration (IC50) in data set [2] (setting [4]) stood at 0.00035 M. Moreover, in data set [3], the “JBMan (%) inhibition in the presence” value is “n.i”.

For the molecule `C[C@H](O)[C@H]1[C@@H](O)[C@@H](O)CN1Cc1ccc(Br)cc1` [Compound 5b, (2S,3R,4S)-1-(4-Bromobenzyl)-2-((S)-1-hydroxyethyl)pyrrolidine-3,4-diol], in data set [1], the “LmanII inhibition in the presence” value is “n.i.^a”. In addition, in data set [2] (setting [4]), the IC50 stood at 0.00265 M. Moreover, in data set [3], the inhibition at 2000 µM came out at 40%.

With `CC[C@H]1[C@@H](O)[C@@H](O)CN1Cc1ccc(Br)cc1` [Compound 3b], in data set [1], the “LmanII inhibition in the presence” value is on record as “n.i.^a”. Moreover, the half-inhibitory concentration (IC50) in data set [2] (setting [4]) is 0.00095 M. The inhibition at 2000 µM in data set [3] was found to be 14%.

Consider `C[C@H](O)[C@H]1[C@@H](O)[C@@H](O)CN1Cc1ccccc1` [Compound 5a, (2S,3R,4S)-1-Benzyl-2-((S)-1-hydroxyethyl)pyrrolidine-3,4-diol], for which the “LmanII inhibition in the presence” value in data set [1] was “n.i.^a”. The IC50 in data set [2] (setting [4]) was 0.00195 M. Besides, the “fold decrease in inhibition activity against GMIIb in comparison with 1a” value in data set [2] is “about 25 fold”. Also, in data set [3], the inhibition at 2000 µM worked out at 21%.

Take `C[C@H](O)[C@H]1[C@@H](O)[C@@H](O)CN1Cc1ccc(I)cc1` [Compound 5c, (2S,3R,4S)-1-(4-Iodobenzyl)-2-((S)-1-hydroxyethyl)pyrrolidine-3,4-diol]: the “LmanII inhibition in the presence” value in data set [1] is reported as “n.i.^a”. The IC50 in data set [2] (setting [4]) worked out at 0.00295 M. For the same molecule, in data set [3], the “JBMan (%) inhibition in the presence” value is recorded as 38% and the inhibition at 2000 µM amounted to 40%.

`CC[C@H]1[C@@H](O)[C@@H](O)CN1Cc1ccccc1` [Compound 3a] yielded a melting point of 76 to 78 °C. The “LmanII inhibition in the presence” value in data set [1] is “n.i.^a”. Moreover, the IC50 in data set [2] (setting [4]) is 0.00075 M. Moreover, the inhibition at 2000 µM in data set [3] came out at 3%.

`C[C@H]1[C@@H](O)[C@@H](O)CN1Cc1ccccc1` [Compound 2a]: the “LmanII inhibition in the presence” value in data set [1] is “n.i.^a”. Besides, the half-maximal inhibitory concentration (IC50) in data set [2] (setting [4]) was found to be 0.00036 M. Further, in data set [3], the “JBMan (%) inhibition in the presence” value is reported as “n.i”.

For `CC[C@H]1[C@@H](O)[C@@H](O)CN1Cc1ccc(I)cc1` [Compound 3c], the “LmanII inhibition in the presence” value in data set [1] was “n.i.^a”. Besides, the concentration for half-maximal inhibition (IC50) in data set [2] (setting [4]) was 0.00045 M; in data set [2] (pH 6.0, read-out: GMIIb IC50), less than 0.0005 M. The inhibition at 2000 µM in data set [3] was 39%.

For the molecule `C[C@@H](O)[C@H]1[C@@H](O)[C@@H](O)CN1Cc1ccc(I)cc1` [Compound 4c], in data set [1], the “LmanII inhibition in the presence” value is given as “n.i.^a”. Also, in data set [2] (setting [4]), the IC50 is 0.0019 M. The inhibition at 2000 µM in data set [3] stood at 17%.

For `C[C@@H](O)[C@H]1[C@@H](O)[C@@H](O)CN1Cc1ccccc1` [Compound 4a], in data set [1], the “LmanII inhibition in the presence” value is “n.i.^a”. In addition, the half-maximal inhibitory concentration (IC50) in data set [2] (setting [4]) came out at 0.0018 M. Also, in data set [2], the “fold decrease in inhibition activity against GMIIb in comparison with 1a” value is “about 25 fold”. In data set [3], the inhibition at 2000 µM turned out to be 2%.
